From patent US10323001B2, “Compositions for modulating a kinase cascade and methods of use thereof” (Athenex, Inc., priority 2006, dated 2019)
Counter-ions that a name gives are not always drawn.

What was measured:
[1] = Aqueous solubility study in buffers at 37° C.; format: physicochemical; conditions: overnight at 37° C.; for solubility: thermodynamic from solid
Method: The solubility of KX2-391 mesylate, Form A was determined in SGF (pH 2), acetate buffer (pH 4.5), and phosphate buffer (pH 7.2). Slurries of KX2-391 mesylate in the buffer solution were allowed to equilibrate overnight at 37° C. The solids were then isolated and the supernatant was diluted and analyzed by HPLC. The response of the supernatant was then compared against a calibration curve to determine the solubility.

[2] = Slurry studies, 2 weeks at ambient conditions; format: physicochemical; conditions: for Form After 2 Weeks (XRPD): initial Form A
Description: After 2 weeks slurry at ambient conditions, the solids were isolated and analyzed by XRPD and HPLC. No additional forms were observed by XRPD.

[3] = Humidity chamber hygroscopicity study (salt solution chambers, visual inspection); format: physicochemical; set-up: key to Observations/Time (hr): FF—Free flowing powder; D—Complete deliquescence of sample observed; CC—Colour change of sample observed; conditions: for XRPD after humidity chamber (compared with XRPD pattern of sponsor lot) / HPLC Assay (% Area Purity) after humidity chamber: up to 120 hr; for HPLC Assay (% Area Purity) after humidity chamber: initial 99.4
Method: Further characterization of the hygroscopicity of the mesylate salt was performed using several humidity chambers to cover a range of humidity from 75, 88 to 95% RH. The 75, 88, and 95% RH chambers were prepared with NaCl, BaCl2.2H2O, and Na2HPO4.12 H2O respectively and were equilibrated for 48 hours prior to introducing the samples. Samples were placed into aluminum pans and monitored by visual inspection for up to five days. Table 3 summarizes the observations at 0, 3, 5, 24, 48, 72, 96 and 120 hour time points.
Moisture sorption studies conducted at ambient temperature utilizing salt solution humidity chambers were conducted to evaluate solid stability by visual inspection.

[4] = Stability studies, 2 weeks at elevated temperature and/or relative humidity; format: physicochemical; conditions: for Form After 2 Weeks (XRPD): initial Form A; for Time to deliquescence: 95% RH, mesylate
Method: Stability studies were performed on KX2-391.MSA obtained in accordance with the process of the present invention (Example 4) using the conditions listed in Table 4 to determine the effects of exposure to elevated temperature and/or relative humidity on the crystalline form of KX2-391.MSA, Form A. After 2 weeks, the samples were analyzed by XRPD and HPLC to determine if any form change or degradation had occurred.

[5] = Pressure and grinding studies; format: physicochemical
[6] = Slurry study (acetone, DI water); format: physicochemical; conditions: Acetone slurry/RT, one and five days
Method: Slurry experiments were performed using acetone and DI water on KX2-391.MSA, Form A. Each vial was filled with approximately 30 mg of KX2-391.MSA, Form A and 0.5 and 1 mL of corresponding solvent, followed by stirring at room temperature for one and five days. The obtained solids were isolated by filtration, dried under vacuum at room temperature, and analyzed by HPLC and XRPD. The initial purity of KX2-391.MSA was 99.4%.

[7] = 5 mg/mL DI water dissolution experiment; format: physicochemical; set-up: key to dissolution state: P—Particulates partially dissolved; D—Particulates fully dissolved; conditions: about 5 mg in 1 mL DI water, magnetic stirring
Method: Dissolution experiments were performed on KX2-391 salts to provide a better understanding of the salts interaction in water. This was accomplished using a 5 mg/mL DI water dissolution experiment where 5 mg of each salt was weighed into a vial and 1 mL of DI wather was added. The solution was monitored visually with magnetic stirring over a 20 minute time period to observe the time of dissolution.

[8] = Threshold solubility of salt screen 96 well plate; conditions: salt screen well: 1 Equivalent of Acid, DI water
Method: Following each addition, the plate was shaken to encourage mixing for at least 5 minutes prior to evaluation.

[9] = slurry in Dioxane:water (~0.9:0.1)
[10] = 40° C./75% RH, accelerated stability chamber

## O=C(Cc1ccc(-c2ccc(OCCN3CCOCC3)cc2)cn1)NCc1ccccc1 [KX2-391.MSA, 2-(5-(4-(2-morpholinoethoxy)phenyl)pyridine-2-yl)-N-benzylacetamide mesylate]
[1]; SGF (pH 2.0)
  pH after slurry: 4.5
[1]; acetate (pH 4.5)
  pH after slurry: 4.4
[1]; acetate buffer, aqueous buffer, acetate (pH 4.5)
  solubility: 737 mg/mL
[1]; phosphate (pH 7.2)
  pH after slurry: 4.3
[1]; phosphate buffer, aqueous buffer, phosphate (pH 7.2)
  solubility: 150 mg/mL
[1]; simulated gastric fluid, SGF (pH 2.0)
  solubility: 700 mg/mL
[2]; slurry in 1-butanol
  HPLC Purity (AUC) after 2 weeks slurry: >99%
  Form After 2 Weeks (XRPD): Form A
[2]; [9]
  HPLC Purity (AUC) after 2 weeks slurry: >99%
  Form After 2 Weeks (XRPD): Form A
[2]; slurry in IPA
  HPLC Purity (AUC) after 2 weeks slurry: >99%
  Form After 2 Weeks (XRPD): Form A
[2]; slurry in MeCN
  HPLC Purity (AUC) after 2 weeks slurry: >99%
  Form After 2 Weeks (XRPD): Form A
[2]; slurry in THF:water (~0.9:0.1)
  HPLC Purity (AUC) after 2 weeks slurry: >99%
  Form After 2 Weeks (XRPD): Form A
[3]; 75% RH (NaCl) chamber, 0 hr
  Observations/Time (hr): FF
[3]; 75% RH (NaCl) chamber, 3 hr
  Observations/Time (hr): FF
[3]; 75% RH (NaCl) chamber, 5 hr
  Observations/Time (hr): FF
[3]; 75% RH (NaCl) chamber, 24 hr
  Observations/Time (hr): FF
[3]; 75% RH (NaCl) chamber, 48 hr
  Observations/Time (hr): FF
[3]; 75% RH (NaCl) chamber, 72 hr
  Observations/Time (hr): FF
[3]; 75% RH (NaCl) chamber, 96 hr
  Observations/Time (hr): FF
[3]; 75% RH (NaCl) chamber, 120 hr
  Observations/Time (hr): FF
[3]; 75% RH (NaCl) chamber
  XRPD after humidity chamber (compared with XRPD pattern of sponsor lot): Consistent
  HPLC Assay (% Area Purity) after humidity chamber: 99.4 % Area Purity
[3]; 75% RH, up to five days
  stability in humidity chamber (deliquescence, decomposition by HPLC): stable
[3]; 88% RH (BaCl2•2H2O) chamber, 0 hr
  Observations/Time (hr): FF
[3]; 88% RH (BaCl2•2H2O) chamber, 3 hr
  Observations/Time (hr): CC
[3]; 88% RH (BaCl2•2H2O) chamber, 5 hr
  Observations/Time (hr): CC
[3]; 88% RH (BaCl2•2H2O) chamber, 24 hr
  Observations/Time (hr): CC
[3]; 88% RH (BaCl2•2H2O) chamber, 48 hr
  Observations/Time (hr): CC
[3]; 88% RH (BaCl2•2H2O) chamber, 72 hr
  Observations/Time (hr): CC
[3]; 88% RH (BaCl2•2H2O) chamber, 96 hr
  Observations/Time (hr): CC
[3]; 88% RH (BaCl2•2H2O) chamber, 120 hr
  Observations/Time (hr): CC
[3]; 88% RH (BaCl2•2H2O) chamber
  XRPD after humidity chamber (compared with XRPD pattern of sponsor lot): Consistent
  HPLC Assay (% Area Purity) after humidity chamber: 89.3 % Area Purity
[3]; 88% RH, up to five days
  colour of material after exposure: darker color yellow
  degradation by HPLC: roughly 10 % area
[3]; 95% RH
  deliquescence on exposure to high humidity: deliquesce within three hours
[3]; 95% RH (Na2HPO4•12H2O) chamber, 0 hr
  Observations/Time (hr): FF
[3]; 95% RH (Na2HPO4•12H2O) chamber, 3 hr
  Observations/Time (hr): D
[3]; 95% RH (Na2HPO4•12H2O) chamber, 5 hr
  Observations/Time (hr): D
[3]; 95% RH (Na2HPO4•12H2O) chamber, 24 hr
  Observations/Time (hr): D
[3]; 95% RH (Na2HPO4•12H2O) chamber, 48 hr
  Observations/Time (hr): D
[3]; 95% RH (Na2HPO4•12H2O) chamber, 72 hr
  Observations/Time (hr): D
[3]; 95% RH (Na2HPO4•12H2O) chamber, 96 hr
  Observations/Time (hr): D
[3]; 95% RH (Na2HPO4•12H2O) chamber, 120 hr
  Observations/Time (hr): D
[4]; 2 weeks, conditions of Table 4
  stability of crystalline form after exposure to the accelerated stability conditions: stable crystalline form
[4]; [10]
  HPLC Purity (AUC) after 2 weeks: >99%
  Form After 2 Weeks (XRPD): Form A
[4]; 51% RH, saturated salt chamber
  HPLC Purity (AUC) after 2 weeks: >99%
  Form After 2 Weeks (XRPD): Form A
[4]; 60° C./ambient humidity, oven
  HPLC Purity (AUC) after 2 weeks: >99%
  Form After 2 Weeks (XRPD): Form A
[4]; 75% RH, saturated salt chamber
  HPLC Purity (AUC) after 2 weeks: >99%
  Form After 2 Weeks (XRPD): Form A
[4]; 88% RH, saturated salt chamber
  HPLC Purity (AUC) after 2 weeks: >99%
  Form After 2 Weeks (XRPD): Form A
[4]; saturated salt chamber, listed as KX2-391-MSA
  Time to deliquescence: quesced <16 hrs
[4]; saturated salt chamber
  Time to deliquescence: less than 16 hrs
[5]
  effect of physical stress on the crystalline form: No change in crystalline form was observed
[6]
  XRPD of solid after slurry: consistent with the pattern of the initial KX2-391.MSA, Form A
[6]; initial 99.4%
  HPLC purity after slurry: 99.3%
[7]; 0 s
  dissolution state: P
[7]; 30 s
  dissolution state: P
[7]; 1 min
  dissolution state: D
[8]; Acetone
  Threshold solubility rank: 1
[8]; Dioxane
  Threshold solubility rank: 1
[8]; THF
  Threshold solubility rank: 1
